Data as given in ChEMBL document CHEMBL4049438, “Discovery and Optimization of Isoquinoline Ethyl Ureas as Antibacterial Agents” (J Med Chem, 2017).
Values after ≈ are worked out from the molar mass of the structure shown. Active and inactive are the calls of the source. No cut-off for these calls is given here.

Experiments:
[1] = Octanol-phosphate buffer partition coefficient, logD of compound at pH 7.4 by LC/UV analysis; format: physicochemical
DNA gyrase = DNA gyrase (Staphylococcus aureus, UniProt P0A0K8+P20831)
Description: Inhibition of Staphylococcus aureus N-terminal His6-tagged DNA gyrase subunit GyrA/GyrB supercoiling activity expressed in Escherichia coli BL21 (DE3) using relaxed pBR322 DNA as substrate after 1 hr by agarose gel electrophoresis

hERG (KCNH2) = hERG (KCNH2) (Homo sapiens, UniProt Q12809); assay: Inhibition of human ERG expressed in CHO cells at 10 uM after 3 mins at -80 mV holding potential by Qpatch assay; format: cell-based; settings: CHO cells expressing human ERG
Sequence of hERG (KCNH2) (Q12809 whole entry): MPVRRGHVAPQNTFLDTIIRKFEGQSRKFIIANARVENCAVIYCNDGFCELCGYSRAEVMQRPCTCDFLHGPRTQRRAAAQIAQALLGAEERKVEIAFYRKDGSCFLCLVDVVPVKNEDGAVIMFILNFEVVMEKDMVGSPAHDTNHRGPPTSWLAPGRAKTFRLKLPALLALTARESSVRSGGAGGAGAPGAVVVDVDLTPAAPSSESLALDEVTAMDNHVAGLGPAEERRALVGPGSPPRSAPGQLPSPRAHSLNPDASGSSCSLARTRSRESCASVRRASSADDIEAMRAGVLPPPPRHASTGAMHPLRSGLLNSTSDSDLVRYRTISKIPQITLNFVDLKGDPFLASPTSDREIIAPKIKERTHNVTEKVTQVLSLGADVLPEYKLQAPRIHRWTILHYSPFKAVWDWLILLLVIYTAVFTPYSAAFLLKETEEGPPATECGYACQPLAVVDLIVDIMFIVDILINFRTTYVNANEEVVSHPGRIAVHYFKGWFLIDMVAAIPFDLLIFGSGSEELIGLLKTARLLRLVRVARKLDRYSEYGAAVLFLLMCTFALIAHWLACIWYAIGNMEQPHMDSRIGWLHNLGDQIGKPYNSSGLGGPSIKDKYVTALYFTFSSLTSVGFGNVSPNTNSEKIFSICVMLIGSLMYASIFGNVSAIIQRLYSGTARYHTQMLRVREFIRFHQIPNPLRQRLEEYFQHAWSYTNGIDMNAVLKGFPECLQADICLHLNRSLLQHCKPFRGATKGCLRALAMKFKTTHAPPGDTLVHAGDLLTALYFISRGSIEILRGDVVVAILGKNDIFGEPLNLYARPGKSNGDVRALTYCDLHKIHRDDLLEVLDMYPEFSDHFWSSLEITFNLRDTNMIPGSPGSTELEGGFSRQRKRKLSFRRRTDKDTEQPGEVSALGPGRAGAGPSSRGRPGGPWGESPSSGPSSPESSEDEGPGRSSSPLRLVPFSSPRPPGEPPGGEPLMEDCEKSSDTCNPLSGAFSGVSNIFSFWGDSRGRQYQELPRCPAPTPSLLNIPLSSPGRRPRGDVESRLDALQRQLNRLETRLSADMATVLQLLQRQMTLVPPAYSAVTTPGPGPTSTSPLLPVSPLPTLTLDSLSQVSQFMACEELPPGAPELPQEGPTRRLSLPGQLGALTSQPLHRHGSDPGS

Staphylococcus aureus [2] = assay: Antibacterial activity against Staphylococcus aureus ATCC 29213 by broth microdilution method; format: functional
[3] = Inhibition of Staphylococcus aureus topoisomerase 4 subunit ParC/ParE relaxation expressed in Escherichia coli BL21 (DE3) using supercoiled pBR322 DNA as substrate after 1 hr by agarose gel electrophoresis
[4] = Inhibition of Escherichia coli N-terminal His6-tagged DNA gyrase subunit GyrA/GyrB supercoiling activity expressed in Escherichia coli BL21 (DE3) using relaxed pBR322 DNA as substrate after 1 hr by agarose gel electrophoresis
[5] = Inhibition of Escherichia coli DNA topoisomerase 4 subunit ParC/ParE relaxation expressed in Escherichia coli BL21 (DE3) using supercoiled pBR322 DNA as substrate after 1 hr by agarose gel electrophoresis
Staphylococcus aureus [6] = assay: Antibacterial activity against methicillin-sensitive Staphylococcus aureus A-1178 infected in neutropenic mouse assessed as change in bacterial burden in thighs at 30 mg/kg, po administered every 2.75 hrs for 2 times measured 6.5 hrs post infection; format: functional
[7] = Inhibition of Escherichia coli N-terminal His6-tagged DNA gyrase subunit GyrA/GyrB ATPase activity expressed in Escherichia coli BL21 (DE3) after 40 mins by spectrophotometric analysis
Escherichia coli [8] = assay: Inhibition of Escherichia coli N-terminal His6-tagged DNA gyrase subunit GyrA/GyrB ATPase activity at 100 to 500 uM after 40 mins by spectrophotometric analysis
Escherichia coli [9] = assay: Antibacterial activity against TolC deficient Escherichia coli by broth microdilution method; format: functional
[10] = Dissociation constant, pKa of the compound by pH metric assay; format: physicochemical

Compound	logD [1]	IC50 (DNA gyrase)	MIC (Staphylococcus aureus [2])	IC50 [3]	IC50 [4]	IC50 [5]	IC50 [7]	inhibition (Escherichia coli [8])	MIC (Escherichia coli [9])	pKa [10]	inhibition at 0.05 h, 10 µM (hERG (KCNH2))	Activity (Staphylococcus aureus [6])
CCNC(=O)Nc1cc2c(-c3ccnc(C)c3)ccc(Cc3cccc(C(=O)O)c3)c2cn1	–	8 nM	0.5 µg/mL (≈ 1.14 µM)	128000 nM	30 nM	> 256000 nM	–	–	–	–	–	-0.3 deltalog10CFU
CCNC(=O)Nc1cc2c(-c3ccncc3)ccc(CNC(=O)OC)c2cn1	2.7	< 4 nM	0.125 µg/mL (≈ 0.329 µM)	500 nM	–	–	–	–	–	–	41%	–
CCNC(=O)Nc1nc2c(s1)CNCC2	–	–	–	–	–	–	200000 nM	Active	–	–	–	–
CCNC(=O)Nc1cc2c(-c3cnn(C)c3)ccc(C)c2cn1.Cl	–	125 nM	4 µg/mL	> 256000 nM	8000 nM	32000 nM	< 200 nM	–	16 µg/mL	–	–	–
CCNC(=O)Nc1cc2c(-c3ccnc(C)c3)ccc(COC(=O)NC3CCNCC3)c2cn1	0.8	8 nM	16 µg/mL (≈ 34.6 µM)	500 nM	–	–	–	–	–	9.8	2%	–
CCNC(=O)Nc1cc2c(-c3ccc(C#N)cc3)ccc(C)c2cn1	–	30 nM	> 32 µg/mL	> 256000 nM	125 nM	> 256000 nM	< 200 nM	–	> 32 µg/mL	–	–	–
CCNC(=O)Nc1nc2c(s1)NC(=O)CC2	–	–	–	–	–	–	20000 nM	Active	–	–	–	–
CCNC(=O)Nc1cnc2ccccc2n1	–	–	–	–	–	–	20000 nM	Active	–	–	–	–
CCNC(=O)Nc1cc2c(-c3ccnc(C)c3)ccc(CNC(=O)C3CC3)c2cn1	3.4	< 4 nM	0.06 µg/mL (≈ 0.149 µM)	2000 nM	–	–	–	–	–	–	75%	–
CCNC(=O)Nc1cc2c(-c3ccnc(C)c3)ccc(CNC(=O)OC3CCNCC3(F)F)c2cn1 (centres undefined)	3.1	8 nM	0.5 µg/mL (≈ 1 µM)	2000 nM	–	–	–	–	–	6.5	8%	–
CCNC(=O)Nc1cc2c(-c3ccnc(C)c3)ccc(Nc3cccc(C(=O)O)c3)c2cn1	–	8 nM	0.5 µg/mL (≈ 1.13 µM)	125 nM	–	500 nM	–	–	–	–	–	–
CCNC(=O)Nc1ccc2ccccc2n1	–	–	–	–	–	–	70000 nM	Active	–	–	–	–
CCNC(=O)Nc1cc2c(-c3cncnc3)ccc(C)c2cn1	–	500 nM	> 32 µg/mL	> 256000 nM	2000 nM	> 256000 nM	< 200 nM	–	> 32 µg/mL	–	–	–
CCNC(=O)Nc1cc2c(-c3cccnc3)ccc(C)c2cn1	–	125 nM	2 µg/mL (≈ 6.53 µM)	> 256000 nM	2000 nM	> 256000 nM	< 200 nM	–	> 32 µg/mL	–	–	–
CCNC(=O)Nc1cc2c(-c3ccnc(C)c3)ccc(Cc3cccnc3)c2cn1.Cl	–	30 nM	0.5 µg/mL	2000 nM	125 nM	8000 nM	–	–	–	–	–	–
CCNC(=O)Nc1nccc2ccccc12	–	–	–	–	–	–	> 200000 nM	Active	–	–	–	–
CCNC(=O)Nc1cc2c(-c3ccncc3)ccc(CNC(=O)OCCN3CCOCC3)c2cn1.Cl	2.3	< 4 nM	4 µg/mL	500 nM	–	–	–	–	–	6.3	0%	–
CCNC(=O)Nc1cc2c(-c3ccnc(C)c3)ccc(COC(=O)N3CCNCC3)c2cn1	1.9	8 nM	2 µg/mL (≈ 4.46 µM)	500 nM	–	–	–	–	–	8.1	0%	–
CCNC(=O)Nc1ncc2ccccc2n1	–	–	–	–	–	–	> 200000 nM	Active	–	–	–	–
CCNC(=O)Nc1cc2c(-c3ccnc(C)c3)ccc(Cn3ccnn3)c2cn1	–	8 nM	0.25 µg/mL (≈ 0.645 µM)	2000 nM	30 nM	8000 nM	–	–	–	–	–	-0.6 deltalog10CFU
CCNC(=O)Nc1nccs1	–	–	–	–	–	–	> 200000 nM	Active	–	–	–	–
CCNC(=O)Nc1cc2c(-c3ccnc(C)c3)ccc(COC(=O)N3CCN(CC4CC4)CC3)c2cn1.Cl	3.6	8 nM	1 µg/mL	500 nM	–	–	–	–	–	7.4	74%	–
CCNC(=O)Nc1cc2c(-c3ccnc(C)c3)ccc(CNC(=O)CCOC)c2cn1	2.6	8 nM	0.5 µg/mL (≈ 1.19 µM)	2000 nM	–	–	–	–	–	–	0%	–

Second part, led by results:

logD [1]	IC50 (DNA gyrase)	MIC (Staphylococcus aureus [2])	IC50 [3]	IC50 [4]	IC50 [5]	IC50 [7]	inhibition (Escherichia coli [8])	MIC (Escherichia coli [9])	pKa [10]	Compound	inhibition at 0.05 h, 10 µM (hERG (KCNH2))	Activity (Staphylococcus aureus [6])
2.5	30 nM	1 µg/mL (≈ 2.36 µM)	8000 nM	–	–	–	–	–	–	CCNC(=O)Nc1cc2c(-c3ccnc(C)c3)ccc(CNC(=O)OCCO)c2cn1	19%	–
–	8 nM	0.06 µg/mL (≈ 0.156 µM)	125 nM	30 nM	500 nM	–	–	–	–	CCNC(=O)Nc1cc2c(-c3ccncc3)ccc(Nc3cccnc3)c2cn1	–	–
–	–	–	–	–	–	200000 nM	Active	–	–	CCNC(=O)Nc1nc2c(s1)CCCC2	–	–
–	8000 nM	32 µg/mL (≈ 140 µM)	> 256000 nM	32000 nM	128000 nM	1000 nM	–	> 32 µg/mL	–	CCNC(=O)Nc1cc2cccc(C)c2cn1	–	–
2	< 4 nM	2 µg/mL (≈ 4.88 µM)	500 nM	–	–	–	–	–	–	CCNC(=O)Nc1cc2c(-c3ccncc3)ccc(CNC(=O)OCCO)c2cn1	0%	–
–	–	–	–	–	–	20000 nM	Active	–	–	CCNC(=O)Nc1nc2ccncc2s1	–	–
–	30 nM	0.5 µg/mL (≈ 1.56 µM)	8000 nM	125 nM	8000 nM	< 200 nM	–	4 µg/mL (≈ 12.5 µM)	–	CCNC(=O)Nc1cc2c(-c3ccnc(C)c3)ccc(C)c2cn1	–	–
–	8000 nM	> 32 µg/mL	> 256000 nM	32000 nM	128000 nM	1000 nM	–	> 32 µg/mL	–	CCNC(=O)Nc1cc2c(-c3cccnc3)cccc2cn1	–	–
2.6	8 nM	4 µg/mL (≈ 8.36 µM)	8000 nM	–	–	–	–	–	8.7	CCNC(=O)Nc1cc2c(-c3ccncc3)ccc(CNC(=O)OCCNCC(C)(C)C)c2cn1	25%	–
–	500 nM	4 µg/mL (≈ 13 µM)	32000 nM	–	32000 nM	< 200 nM	–	4 µg/mL (≈ 13 µM)	–	CCNC(=O)Nc1cc2c(-c3ccncn3)ccc(C)c2cn1	–	–
0.2	30 nM	> 32 µg/mL	2000 nM	–	–	–	–	–	9	CCNC(=O)Nc1cc2c(-c3ccncc3)ccc(CNC(=O)OCCNC)c2cn1	3%	–
1.5	8 nM	4 µg/mL (≈ 8.32 µM)	125 nM	–	–	–	–	–	8.1	CCNC(=O)Nc1cc2c(-c3ccnc(C)c3)ccc(COC(=O)N[C@@H]3CCNC[C@@H]3F)c2cn1 (relative stereo)	8%	–
3.7	< 4 nM	0.25 µg/mL (≈ 0.614 µM)	500 nM	–	–	–	–	–	–	CCNC(=O)Nc1cc2c(-c3ccncc3)ccc(CNC(=O)OC(C)C)c2cn1	63%	–
–	128000 nM	> 32 µg/mL	> 256000 nM	–	> 256000 nM	20000 nM	Active	> 32 µg/mL	–	CCNC(=O)Nc1cc2ccccc2cn1	–	–
–	–	–	–	–	–	20000 nM	Active	–	–	CCNC(=O)Nc1nc2ccccc2s1	–	–
–	30 nM	0.25 µg/mL (≈ 0.649 µM)	2000 nM	125 nM	8000 nM	–	–	–	–	CCNC(=O)Nc1cc2c(-c3ccncc3)ccc(Oc3cccnc3)c2cn1	–	–
–	–	–	–	–	–	> 200000 nM	Active	–	–	CCNC(=O)Nc1ccccn1	–	–
–	125 nM	> 16 µg/mL	> 256000 nM	2000 nM	> 256000 nM	–	–	–	–	CCNC(=O)Nc1cc2c(-c3ccncc3)ccc(-c3cccnc3)c2cn1	–	–
2.2	8 nM	2 µg/mL (≈ 4.16 µM)	125 nM	–	–	–	–	–	7.7	CCNC(=O)Nc1cc2c(-c3ccnc(C)c3)ccc(COC(=O)N[C@@H]3CCNC[C@H]3F)c2cn1 (relative stereo)	9%	–
